Values joined by “and” are separate entries in the source; they are usually repeats but may differ in a detail not shown here. Equal values may be shown once. Ends that are not written are not given here.
Experiments:
FcγIIIa = assay: FcγR reverse ELISA: inhibition of PAP immune complex binding (Table 2); conditions: PAP/peptide mixture on FcγR coated plates; positive control 1.588
Excerpt: (§1) For this reason, a “reverse ELISA” technique has been used to assess binding of the Fc region to ligands that bind to immune complexed IgG Fc. In a reverse ELISA, the enzyme (e.g., HRP) is not covalently conjugated to the Fc portion of the secondary antibody. Rather, a preformed immune complex of peroxidase-rabbit (or mouse) anti-peroxidase IgG (“PAP” complex) is used. […] In the reverse ELISA system, an Fc CH2-CH3 cleft binding ligand (e.g., purified human C1q) was bound to microwell plates. In the absence of competitor, PAP complexes bound to the immobilized ligand and the reaction between HRP and its substrate produces a signal. This signal was reduced by polypeptides and compounds that inhibited PAP binding to the immobilized ligand.
(§2) Once the reverse ELISA protocol was established using the C1q assay, the assay was redesigned using FcγIIa, FcγIIb and FcγIII in place of C1q. Highly purified FcγIIa, FcγIIb and FcγIII (R&D Systems, Minneapolis, Minn.) were immunoadsorbed onto plastic microwells. After optimizing the FcγR reverse ELISA system, simple competitive inhibition experiments using polypeptides provided herein were conducted to investigate their ability to inhibit binding of immune complexes to purified FcγR.
(§3) Falcon microtiter plates were coated with 1:10 dilutions of highly purified FcγIIa, FcγIIb and FcγIII and incubated for 24 hours. The plates were washed and then blocked with 5×BSA blocking solution (Alpha Diagnostic International, San Antonio, Tex.) for 24 hours. PAP immune complexes were formed as described in Example 1. PAP (100 μl) were pre-incubated with 100 μl of peptide for one hour. PAP/peptide mixtures were added to the FcγR coated plates and incubated for one hour. After washing, plates were incubated with ABTS substrate (Quidel Corp.) for 15 minutes and read at 405 nm.

FcγIIb = assay: as above; conditions: PAP/peptide mixture on FcγR coated plates; positive control 1.394
Excerpt: as §1, §2, §3

FcγIIa (R131 allele) = assay: as above; conditions: PAP/peptide mixture on FcγR coated plates; positive control 1.599
Excerpt: as §1, §2, §3

human C1q = assay: Reverse ELISA: inhibition of PAP immune complex binding to C1q coated plates; conditions: for OD 405 nm: PAP pre-incubated with peptide or C1q one hour, C1q coated plates, lower OD = more inhibition, positive control 2.355
Excerpt: as §1
PAP complexes were formed mixing 2 μl of rabbit anti-peroxidase (Sigma Chemicals, St. Louis, Mo.; Cat. No. P7899) with 50 μl of peroxidase (Sigma-Aldrich, Cat. No. P6782) in 1 ml distilled water. PAP (100 μl) were pre-incubated with 100 μl of peptide for one hour, 100 μl were pre-incubated with 100 μl of peptide or human C1q (Quidel Corp., San Diego, Calif.) for one hour. The C1q/PAP and peptide/PAP mixtures (100 μl) were incubated with C1q coated plates for 30 minutes. After washing, plates were incubated with ATBS (Quidel Corp.) for 15 minutes and read at 405 nm.

mice having induced ITP = assay: In vivo treatment of ITP induced by rabbit anti-platelet antibody, platelet counting by flow cytometry; parameters: species or system CD-1 mice; conditions: for Platelet counts, individual mice: intraperitoneal, 24 hours; for Platelet counts, mean: 3 mice, ITP alone mean 170.7, Nil 1016; for Effect on induced ITP: first experiment, Table 4, 10× and 100× molar
Protocol: Mice: CD-1 mice approximately 6-8 weeks of age were obtained from Charles River (Montreal). The animals were housed 3-5 per cage in filter-topped cages. The temperature and relative humidity were maintained at […] and 35-70%, respectively, and a 12 hour light/dark cycle was used. The mice were fed rodent chow and water ad libitum.
Anti-platelet antibodies to induce ITP: A rabbit anti-platelet antibody (Inter-Cell Technologies, Inc., Jupiter, Fla.; Cat. No. A31440) was used to induce ITP. Each mouse received 10 μl antibody-containing serum, diluted with 190 μl PBS for injection, such that the final injection volume was 200 μl for all groups injected with anti-platelet antibody.
On the day of use, one vial of rabbit anti-platelet antibody was removed from the freezer, placed in a 22° C. water bath, and shaken. The tube was checked every 30 seconds, and when it was completely thawed it was placed in a microcentrifuge and centrifuged at 10,000×g (11,000 rpm) for 10 minutes at 4° C. The supernatant fluid was transferred to a new tube and the pellet was discarded. The supernatant was placed on ice until used or diluted, as appropriate. Unused portions of the sera were discarded.
Therapeutic treatment of ITP: IVIg was used as a standard control treatment for the ITP induced by the rabbit anti-platelet antibody. The IVIg was Gamimmune® N, 10%. Treatment with IVIg consisted of an intraperitoneal injection of 50 mg (500 μl) IVIg, a dose that was equivalent to a dose of 2,000 mg/kg body weight.
Platelet enumeration: All mice were bled via the saphenous vein. 50 μL of blood were collected into 450 μL PBS/1% EDTA. The blood was further diluted in PBS/1% EDTA. Platelets were enumerated by flow cytometry with a Guava microcapillary cytometer (Guava EasyCyteMini, Guava Technologies, Inc., Hayward, Calif.), using forward scatter (FSC) versus side scatter (SSC) to gate platelets.
Peptides used to inhibit ITP: Peptides having the amino acid sequences set forth in SEQ ID NO:2 ([…]), SEQ ID NO:20 ([…]), and a control peptide in which Trp7, Val13 and Trp14 of SEQ ID NO:20 were replaced by alanines ([…]; SEQ ID NO:57) were tested for their ability to inhibit ITP. Alanine substation of Val13 and Trp14 causes a decrease in binding affinity (measured by ΔΔG, where G=Gibbs Energy) of greater than 1,000 fold.
Peptides were stored at −20° C. until the day of use. On the day of use, peptides were removed from the freezer, placed in a 22° C. water bath, shaken, and checked every 30 seconds for thawing. When thawed, the peptides were placed on ice until use. For samples that received a 10× dose of peptide, the following were sequentially added to a 1.5 ml polypropylene Eppendorf tube: 623 μl PBS (pH 7.22), 35 μL rabbit anti-plaletet IgG, and 42 μl peptide, with mixing after each addition. For samples having a 100× dose of peptide, the following were added sequentially to a 1.5 ml polypropylene Eppendorf tube: 245 μl PBS (pH 7.22), 35 μL rabbit anti-plaletet IgG, and 420 μl peptide, with mixing after each addition. The peptides were incubated for at least 30 minutes at 22° C. prior to injection into mice. (A 15 minute incubation in the laboratory, transport of the mixtures to the Vivarium, and injection took roughly an additional 30 minutes.)
The final volume of each peptide mixture was 700 μL, which was sufficient for injection of 3 mice (200 μl/mouse, plus 100 μl to cover dead volume). For the 10× dose/mouse of peptide, 12 μg of peptide (12 μl of 1 mg/ml solution) was mixed with 100 μg of the rabbit anti-platelet IgG (10 μl of 10 mg/ml solution). The volume of 700 μl was about 3.5× the volume injected per mouse (200 μl). To obtain the dose of peptide and rabbit IgG for the 700 μl final volume, dose of peptide or Rabbit IgG per mouse was multiplied by 3.5 (e.g., 12 μl peptide/mouse×3.5=42 μl, 10 μl Rabbit IgG/mouse×3.5=35 μl). PBS (623 μl, pH 7.22) was added to make up the final volume 700 μl. […]

[1] = molecular target: PAP complex: preformed immune complex of peroxidase and rabbit anti-peroxidase IgG (horseradish) (UniProt P00433); assay: reverse ELISA competition: PAP pre-incubated with peptide, then on C1q-coated plate; signal is PAP left bound to immobilised human C1q (lower = more inhibition)
[2] = molecular target: PAP complex: preformed immune complex of peroxidase and rabbit anti-peroxidase IgG (horseradish) (UniProt P00433); assay: reverse ELISA competition: PAP pre-incubated with peptide, then on plate coated with FcγIIa (R131 allele); signal is PAP left bound to the receptor
[3] = molecular target: PAP complex: preformed immune complex of peroxidase and rabbit anti-peroxidase IgG (horseradish) (UniProt P00433); assay: reverse ELISA competition: PAP pre-incubated with peptide, then on plate coated with FcγIIb; signal is PAP left bound to the receptor
[4] = molecular target: PAP complex: preformed immune complex of peroxidase and rabbit anti-peroxidase IgG (horseradish) (UniProt P00433); assay: reverse ELISA competition: PAP pre-incubated with peptide, then on plate coated with FcγIIIa; signal is PAP left bound to the receptor
[5] = ITP + 10X molar amount of peptide
[6] = ITP + 100X molar amount of peptide

UniProt P00433, sequence (P00433 31-338, one chain of several): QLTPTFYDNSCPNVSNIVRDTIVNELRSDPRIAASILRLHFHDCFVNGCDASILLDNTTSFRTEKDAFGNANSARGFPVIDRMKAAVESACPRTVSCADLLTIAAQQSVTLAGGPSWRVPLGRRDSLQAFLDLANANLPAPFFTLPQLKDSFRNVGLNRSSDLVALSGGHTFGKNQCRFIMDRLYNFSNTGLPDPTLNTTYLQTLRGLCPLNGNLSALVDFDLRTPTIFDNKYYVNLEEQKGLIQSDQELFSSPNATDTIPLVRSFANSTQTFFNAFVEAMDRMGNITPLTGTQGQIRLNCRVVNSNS

Row | Molecule | OD405 FcγIIIa (FcγIIIa) | OD405 FcγIIb (FcγIIb) | OD405 FcγIIa (R131 allele) (FcγIIa (R131 allele)) | OD 405 nm (human C1q) | OD 405 nm [1] [OD 405 nm] | OD405 [2] [OD405] | OD405 [3] [OD405] | OD405 [4] [OD405] | also measured
1 | Asp-Cys-Ala-Phe-His-Leu-Gly-Glu-Leu-Val-Trp-Cys-Thr (DCAFHLGELVWCT) [SEQ ID NO:3] | 0.810 | 0.510 | 0.660 | 0.859 | – | – | – | – | –
2 | APPCAFHLGELVWCT (cysteine pairing not given here) [SEQ ID NO:18] | 0.880 | 0.380 | 0.605 | 0.983 | – | – | – | – | –
3 | APPDCAAHLGELAACT [SEQ ID NO:57, reference compound] | – | – | – | – | – | – | – | – | Platelet counts, individual mice (mice having induced ITP; ITP + 10X molar amount of peptide, listed as CP): 1.99e+11 L⁻¹ and 1.91e+11 L⁻¹ and 1.43e+11 L⁻¹; Platelet counts, mean (mice having induced ITP; [5]): 1.777e+11 L⁻¹; Platelet counts, individual mice (mice having induced ITP; ITP + 100X molar amount of peptide, listed as CP): 1.55e+11 L⁻¹ and 1.6e+11 L⁻¹ and 1.79e+11 L⁻¹; Platelet counts, mean (mice having induced ITP; [6]): 1.647e+11 L⁻¹; Effect on induced ITP (mice having induced ITP): no effect
4 | APPCAWHLGELVWCT (cysteine pairing not given here) [SEQ ID NO:14] | 0.530 | 0.562 | 0.658 | 1.148 | – | – | – | – | –
5 | APPCARHLGELVWCT (cysteine pairing not given here) [SEQ ID NO:16] | 0.709 | 0.768 | 0.956 | 0.567 | – | – | – | – | Inhibition of C1q binding (ranking in words) (human C1q; summary of Table 1): next best result
6 | Asp-Cys-Ala-Trp-His-Leu-Gly-Glu-Leu-Val-Trp-Cys-Thr [SEQ ID NO:2] | 0.741 | 0.532 | 0.561 | 1.100 | – | – | – | – | Platelet counts, individual mice (mice having induced ITP; ITP + 10X molar amount of peptide, listed as BP): 1.63e+11 L⁻¹ and 1.17e+11 L⁻¹ and 2.33e+11 L⁻¹; Platelet counts, mean (mice having induced ITP; [5]): 1.71e+11 L⁻¹; Platelet counts, individual mice (mice having induced ITP; ITP + 100X molar amount of peptide, listed as BP): 1.55e+11 L⁻¹ and 1.25e+11 L⁻¹ and 1.94e+11 L⁻¹; Platelet counts, mean (mice having induced ITP; [6]): 1.58e+11 L⁻¹; Effect on induced ITP (mice having induced ITP): no effect
7 | DCAFHLGELVWCT [Peptide … (SEQ ID NO:3)] | – | – | – | – | 0.859 | 0.66 | 0.51 | 0.81 | –
8 | APPCAFHLGELVWCT [Peptide … (SEQ ID NO:18)] | – | – | – | – | 0.983 | 0.605 | 0.38 | 0.88 | –
9 | APPCAWHLGELVWCT [Peptide … (SEQ ID NO:14)] | – | – | – | – | 1.15 | 0.658 | 0.562 | 0.53 | –
10 | APPCARHLGELVWCT [Peptide … (SEQ ID NO:16)] | – | – | – | – | 0.567 | 0.956 | 0.768 | 0.709 | –
